Tests used:
SH-SY5Y cells [1] = test: Dose-response screening for non-toxic concentrations, MTT reduction assay; assay type: cell-based, human; conditions: 10 µM to 40 µM, 25 h
Method: The neuroprotective effect of these new multi-target drugs designed for AD was evaluated using SH-SY5Y cells treated with Aβ1-42 peptides or ascorbate/iron. For each compound we performed a dose-response curve to select a non-toxic concentration (Figure 7).
Figure 7. Dose-response screening to select non-toxic concentrations of TAC-BF hybrids. Cells were treated with varying concentration of TAC-BF conjugates (from 10 μM to 40 μM) for 25 h and cell viability was determined using the MTT reduction assay.
SH-SY5Y human neuroblastoma cell line (ATCC-CRL-2266) is grown in Dulbecco’s modified Eagle’s medium (DMEM), and were obtained from Gibco-Invitrogen (Life Technologies Ltd, UK) with 10% heat inactivated foetal calf serum, containing 50 U/mL penicillin and 50 µg/mL streptomycin, under a humidified atmosphere of 95% air- 5% CO2 at 37 °C. Cells were plated at 0.12 × 10^6 cells/mL for cell viability assay. The tested compounds (18, 19, 20, 21, 23 and 24) were dissolved in DMSO at a concentration of 50 mM and aliquots were stored at −20 °C. We performed a dose-response screening (from 10 µM to 40 µM) in order to choose the highest non-toxic concentration. As a result we selected: 20 µM final concentrations for compounds 18, 19, 20 and 23; 20 µM final concentration for compound 19; 35 µM final concentration for compounds 21 and 24. […] The compounds were added to the cell media 1 h before the incubation with Aβ1-42 or L-ascorbic acid/ferrous sulphate. Aβ1-42 or L-ascorbic acid/ferrous sulphate where incubated alone or with the compound for an additional 24 h. Aβ1-42 was prepared as 276.9 µM stock in sterile water and added to the medium at 2.5 µM final concentration. Ferrous sulphate was freshly prepared as 0.36 M stock in water and added to the medium at 500 µM final concentration. L-Ascorbic Acid was freshly prepared as 80 mM stock in water and added to the medium at 5 mM final concentration. Aβ1-42 was purchased from Bachem (Torrance, CA, USA) and ferrous sulphate and L-ascorbic acid from Sigma Chemical Co (St. Louis, MO, USA).
Cell viability was determined by the MTT (3–(4,5-dimethylthiazol-2-yl)-2,5-diphenyltetrazolium bromide) reduction test. In viable cells, the enzyme succinate dehydrogenase metabolises MTT into a formazan that absorbs light at 570 nm. Following the cell treatment protocol, the medium was aspirated and 0.5 mL MTT (0.5 mg/mL) was added to each well. The plate was then incubated at 37 °C for 1 h 30 min protected from light. At the end of the incubation period, the formazan precipitates were solubilised with 0.5 mL of acidic isopropanol (0.04 M HCl/isopropanol). The absorbance was measured at 570 nm[51]. Cell reduction ability was expressed as a percentage of untreated control cells.

[2] = Fe(III) complexation, UV-vis spectrophotometric titration; assay type: physicochemical; conditions: 25% w/w DMSO/water
Method: (§1) It has been largely accepted that chelators interfere both in metal-induced Aβ aggregation/neurotoxicity and on metal homeostasis of AD brains. Among the hybrids with BF hydroxyl substituent, compound 21 was chosen as a representative model to analyse the concomitant chelating capacity towards the redox-active (Fe(III), Cu(II)) and Aβ-binding (Cu(II)) metal ions. Due to solubility reasons, these studies were performed in a mixed 25% (w/w) DMSO/water medium, In fact, DMSO was chosen because it is a widely used and well tolerated solvent in biological and cellular studies, the amounts of ligand (<7 µM) and DMSO (<1%) employed in culture media being quite low with concomitant no alterations observed in cells.
(§2) The chelating ability of compound 21 towards the two metal ions under study (Fe(III) and Cu(II)) was evaluated on the basis of the global formation constants of the complexes, obtained by treatment of the UV-vis spectrophotometric data (see Table 1).
(§3) For the metal complexation studies, the aqueous iron (FeCl3, 0.0177 M) and copper (CuCl2, 0.015 M) stock solutions were prepared from 1000 ppm standards (Titrisol) and their metal content was evaluated by atomic absorption. To prevent hydrolysis, the iron stock solution was prepared in excess of acid chloride and its exact concentration in HCl determined by the usual standard-addition method using 0.1 M HCl (Titrisol). The 0.1 M HCl solution, used in spectrophotometric titrations, was prepared from a Titrisol ampoule while the titrant was from carbonate free commercial concentrate (Titrisol, KOH 0.1 M ampoules). The KOH solution was standardised by titration with a solution of potassium hydrogen phthalate and was discarded whenever the percentage of carbonate, determined by Gran’s method, was greater than 0.5% of the total amount of base.
(§4) The electronic spectra and the AChE inhibition assays were performed in a 1-cm path length quartz cell with a Perkin Elmer Lambda 35 spectrophotometer equipped with a temperature programmer PTP1 + 1 Peltier System (T = 25.0 ± 0.1 °C). The enzyme AChE 500 U, extracted from Electrophorus electricus (electric eel), was purchased from Sigma-Aldrich.

[3] = Cu(II) complexation, UV-vis spectrophotometric titration; assay type: physicochemical; conditions: 25% w/w DMSO/water
Method: as §1, §2, §3, §4

SH-SY5Y cells [4] = test: Neuroprotection against ascorbate/iron (Asc/Fe) toxicity, MTT reduction assay; assay type: cell-based, human; conditions: Asc/Fe 5 mM/500 μM 24 h after 1 h compound; 18, 19, 20, 23 at 20 µM; 21, 24 at 35 µM
Method: Figure 9. Neuroprotective effect of TAC-BF conjugates against L-Ascorbic Acid (AscH(-))/Ferrous Sulphate (Fe) toxicity on SH-SY5Y cells. Cells were treated with Asc/Fe (5 mM/500 μM, respectively) for 24 h, after treatment for 1 h in the absence or in the presence of the compounds. Evaluation of cell viability was performed by using MTT reduction assay. […] (compounds: 18, 19, 20 and 23 – 20 µM; 21, 24 – 35 µM).
(§5) SH-SY5Y human neuroblastoma cell line (ATCC-CRL-2266) is grown in Dulbecco’s modified Eagle’s medium (DMEM), and were obtained from Gibco-Invitrogen (Life Technologies Ltd, UK) with 10% heat inactivated foetal calf serum, containing 50 U/mL penicillin and 50 µg/mL streptomycin, under a humidified atmosphere of 95% air- 5% CO2 at 37 °C. Cells were plated at 0.12 × 10^6 cells/mL for cell viability assay. The tested compounds (18, 19, 20, 21, 23 and 24) were dissolved in DMSO at a concentration of 50 mM and aliquots were stored at −20 °C. We performed a dose-response screening (from 10 µM to 40 µM) in order to choose the highest non-toxic concentration. […]
(§6) Cell viability was determined by the MTT (3–(4,5-dimethylthiazol-2-yl)-2,5-diphenyltetrazolium bromide) reduction test. […] The absorbance was measured at 570 nm[51]. Cell reduction ability was expressed as a percentage of untreated control cells.

SH-SY5Y cells [5] = test: Neuroprotection from Aβ42-induced toxicity, MTT reduction assay; assay type: cell-based, human; conditions: Aβ42 2.5 μM 24 h; 1 h pre-incubation + 24 h co-incubation; 18, 19, 20, 23 at 20 µM; 21, 24 at 35 µM
Method: Figure 8. Neuroprotective effect of TAC-BF hybrids from Aβ42-induced toxicity on SH-SY5Y cells. Cells were treated with Aβ42 peptide (2.5 μM) for 24 h in the absence or in the presence of the compounds (1 h pre-incubation + 24 h co-incubation). Evaluation of cell viability was performed using the MTT reduction assay. […] (compounds: 18, 19, 20 and 23 – 20 µM; 21, 24 – 35 µM).
as §5, §6

[6] = pH 7.4, CL/CM = 10, CM = 10^−6 M

COc1cccc2cc(C(=O)NCCCCNc3c4c(nc5cc(Cl)ccc35)CCCC4)oc12 [Compound 20, N-(4-((6-chloro-1,2,3,4-tetrahydroacridin-9-yl)amino)butyl)-7-methoxybenzofuran-2-carboxamide]
highest non-toxic concentration selected from dose-response screening (SH-SY5Y cells [1]): 20 µM

O=C(NCCCNc1c2c(nc3ccccc13)CCCC2)c1cc2cccc(O)c2o1 [Compound 21, 7-Hydroxy-N-(3-((1,2,3,4-tetrahydroacridin-9-yl)amino)propyl)benzofuran-2-carboxamide]
log βFemHhLl, species (1–22) ([2]; T = 25.0 °C, I = 0.1 M KCl): 12.21(8)
log βFemHhLl, species (103) ([2]; T = 25.0 °C, I = 0.1 M KCl): 36.95(7)
log βFemHhLl, species (111) ([2]; T = 25.0 °C, I = 0.1 M KCl): 22.90(6)
log βFemHhLl, species (112) ([2]; T = 25.0 °C, I = 0.1 M KCl): 38.37(6)
pM (pFe) = −log[M] [2, 6]: 22.2
log βCumHhLl, species (1–11) ([3]; T = 25.0 °C, I = 0.1 M KCl): 2.25(3)
log βCumHhLl, species (101) ([3]; T = 25.0 °C, I = 0.1 M KCl): 10.87(6)
log βCumHhLl, species (102) ([3]; T = 25.0 °C, I = 0.1 M KCl): 20.68(8)
log βCumHhLl, species (111) ([3]; T = 25.0 °C, I = 0.1 M KCl): 19.02(2)
pM (pCu) = −log[M] [3, 6]: 11.9
highest non-toxic concentration selected from dose-response screening (SH-SY5Y cells [1]): 35 µM
Neuroprotective effect against Asc/Fe toxicity (cell viability) (SH-SY5Y cells [4]): lowest capacity for in cell radical scavenging

O=C(NCCCNc1c2c(nc3cc(Cl)ccc13)CCCC2)c1cc2cccc(O)c2o1 [Compound 23, N-(3-((6-chloro-1,2,3,4-tetrahydroacridin-9-yl)amino)propyl)-7-hydroxybenzofuran-2-carboxamide]
highest non-toxic concentration selected from dose-response screening (SH-SY5Y cells [1]): 20 µM
Neuroprotective effect from Aβ42-induced toxicity (cell viability) (SH-SY5Y cells [5]): prevented that Aβ-induced cell toxicity

O=C(NCCCCNc1c2c(nc3cc(Cl)ccc13)CCCC2)c1cc2cccc(O)c2o1 [Compound 24, N-(4-((6-chloro-1,2,3,4-tetrahydroacridin-9-yl)amino)butyl)-7-hydroxybenzofuran-2-carboxamide]
highest non-toxic concentration selected from dose-response screening (SH-SY5Y cells [1]): 35 µM

COc1cccc2cc(C(=O)NCCCNc3c4c(nc5cc(Cl)ccc35)CCCC4)oc12 [Compound 19, N-(3-((6-chloro-1,2,3,4-tetrahydroacridin-9-yl)amino)propyl)-7-methoxybenzofuran-2-carboxamide]
highest non-toxic concentration selected from dose-response screening (SH-SY5Y cells [1]): 20 µM
Neuroprotective effect from Aβ42-induced toxicity (cell viability) (SH-SY5Y cells [5]): prevented that Aβ-induced cell toxicity
Neuroprotective effect against Asc/Fe toxicity (cell viability) (SH-SY5Y cells [4]): appeared to best achieve cell protection from Asc/Fe-induce oxidative stress

— PMC7567501 (Journal of Enzyme Inhibition and Medicinal Chemistry, 2019)
